Drawing on patent US8697739B2, “Bicyclic acetyl-CoA carboxylase inhibitors and uses thereof” (Novartis AG, priority 2010, dated 2014), this text covers IC50 for 21 compounds.

In general, IC50 refers to the concentration needed to halve the response being measured.

T1 sequence (O00763 144-2458): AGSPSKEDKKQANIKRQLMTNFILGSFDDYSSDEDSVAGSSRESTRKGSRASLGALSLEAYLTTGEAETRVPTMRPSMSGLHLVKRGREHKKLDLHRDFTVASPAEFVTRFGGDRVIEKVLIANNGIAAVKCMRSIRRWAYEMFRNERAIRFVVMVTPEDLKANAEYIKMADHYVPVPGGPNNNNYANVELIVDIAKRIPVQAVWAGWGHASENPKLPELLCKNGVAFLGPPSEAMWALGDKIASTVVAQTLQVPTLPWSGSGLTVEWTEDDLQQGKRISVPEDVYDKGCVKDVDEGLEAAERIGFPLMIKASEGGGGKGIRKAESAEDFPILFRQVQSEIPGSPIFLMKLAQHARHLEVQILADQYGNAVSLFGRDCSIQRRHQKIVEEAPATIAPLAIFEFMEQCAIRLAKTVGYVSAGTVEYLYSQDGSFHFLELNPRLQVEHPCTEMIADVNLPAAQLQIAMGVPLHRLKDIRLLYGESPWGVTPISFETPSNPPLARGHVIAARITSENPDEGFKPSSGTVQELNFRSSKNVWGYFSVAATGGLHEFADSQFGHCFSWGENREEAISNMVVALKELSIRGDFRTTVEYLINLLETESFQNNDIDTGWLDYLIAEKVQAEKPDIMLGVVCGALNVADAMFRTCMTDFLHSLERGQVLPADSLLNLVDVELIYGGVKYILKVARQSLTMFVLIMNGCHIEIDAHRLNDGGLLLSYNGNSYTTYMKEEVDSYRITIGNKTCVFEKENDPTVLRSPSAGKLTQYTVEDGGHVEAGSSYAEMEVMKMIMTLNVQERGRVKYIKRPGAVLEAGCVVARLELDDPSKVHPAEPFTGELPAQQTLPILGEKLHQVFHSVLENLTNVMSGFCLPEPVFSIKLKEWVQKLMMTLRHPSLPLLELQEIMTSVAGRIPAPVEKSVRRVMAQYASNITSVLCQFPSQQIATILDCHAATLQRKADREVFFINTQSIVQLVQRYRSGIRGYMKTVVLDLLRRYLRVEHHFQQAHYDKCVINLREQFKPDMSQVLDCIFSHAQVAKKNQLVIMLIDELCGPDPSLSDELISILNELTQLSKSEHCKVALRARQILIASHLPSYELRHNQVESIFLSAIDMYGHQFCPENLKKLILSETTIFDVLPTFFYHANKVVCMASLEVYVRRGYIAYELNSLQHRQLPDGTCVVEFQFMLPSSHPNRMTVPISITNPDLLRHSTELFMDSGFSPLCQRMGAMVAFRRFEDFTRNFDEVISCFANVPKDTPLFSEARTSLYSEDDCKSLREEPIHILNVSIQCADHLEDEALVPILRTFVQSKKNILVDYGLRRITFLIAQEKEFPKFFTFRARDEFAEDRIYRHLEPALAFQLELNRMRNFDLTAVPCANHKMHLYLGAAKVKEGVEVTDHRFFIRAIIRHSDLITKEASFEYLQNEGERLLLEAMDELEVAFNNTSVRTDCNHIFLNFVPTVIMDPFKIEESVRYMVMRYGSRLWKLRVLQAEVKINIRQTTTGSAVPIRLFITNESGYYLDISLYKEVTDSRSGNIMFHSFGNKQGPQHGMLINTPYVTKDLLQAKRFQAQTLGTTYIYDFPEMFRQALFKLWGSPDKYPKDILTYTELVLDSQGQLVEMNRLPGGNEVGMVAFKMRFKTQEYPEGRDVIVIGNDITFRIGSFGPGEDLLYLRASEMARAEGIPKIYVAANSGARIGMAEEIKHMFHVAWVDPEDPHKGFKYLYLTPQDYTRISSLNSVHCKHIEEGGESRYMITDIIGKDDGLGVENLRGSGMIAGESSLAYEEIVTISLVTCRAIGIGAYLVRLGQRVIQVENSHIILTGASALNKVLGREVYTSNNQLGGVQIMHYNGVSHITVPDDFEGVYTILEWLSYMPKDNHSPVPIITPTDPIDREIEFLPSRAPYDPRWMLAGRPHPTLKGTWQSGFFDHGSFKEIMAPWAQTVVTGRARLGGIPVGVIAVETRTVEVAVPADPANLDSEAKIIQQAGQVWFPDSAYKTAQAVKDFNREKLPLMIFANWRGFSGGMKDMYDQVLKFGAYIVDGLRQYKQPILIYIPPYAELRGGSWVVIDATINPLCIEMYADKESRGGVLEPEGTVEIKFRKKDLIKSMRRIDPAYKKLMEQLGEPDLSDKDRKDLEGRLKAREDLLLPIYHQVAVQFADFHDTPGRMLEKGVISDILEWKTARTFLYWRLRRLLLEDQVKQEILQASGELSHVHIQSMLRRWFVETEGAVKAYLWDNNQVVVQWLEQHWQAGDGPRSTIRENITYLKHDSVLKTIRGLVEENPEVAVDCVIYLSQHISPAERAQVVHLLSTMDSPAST

The experiment has as its target T1, human acetyl-CoA carboxylase 2 (ACC2) (Homo sapiens, UniProt O00763).
T1 construct: The cDNA encoding amino acids 144 to 2458 of human acetyl-CoA carboxylase 2; made in house; host or cells: Sf9 insect cells (baculovirus, pFastBac1)
Briefly: Acetyl-CoA carboxylase enzyme assay (malonyl-CoA formation by LC/MS/MS). It counts as biochemical. To be noted: recombinant human ACC2 (aa 144-2458); read-out: IC50 ACC2. An outline of the steps: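 Malonyl-CoA formation was read by LC/MS/MS MRM against a [13C3]-malonyl-CoA internal standard, after acetic acid quench. The enzyme was baculovirus/Sf9-expressed human ACC2 residues 144–2458, given 15 minutes room-temperature compound preincubation in HEPES pH 7.5 buffer with MgCl2, citrate and DTT. Substrate solution held 50 μM acetyl-CoA, 120 μM ATP and 2 mM KHCO3.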
As to `CCOC(=O)c1cccc(-c2nc3ccc(S(=O)(=O)N[C@H]4CC[C@H](C(=O)N[C@H](C)c5ccccc5)CC4)cc3[nH]2)c1` [Example 2, ethyl 3-(6-(N-((1R,4r)-4-((R)-1-phenylethylcarbamoyl)cyclohexyl)sulfamoyl)-1H-benzo[d]imidazol-2-yl)benzoate], the IC50 turned out to be 19 nM.
Regarding `C[C@@H](NC(=O)[C@H]1CC[C@H](NS(=O)(=O)c2ccc3[nH]c([C@@H]4CNCCN4)nc3c2)CC1)c1ccc(F)cc1` [Example 108, (1r,4R)-N-((R)-1-(4-fluorophenyl)ethyl)-4-(2-((S)-piperazin-2-yl)-1H-benzo[d]imidazole-5-sulfonamido)cyclohexanecarboxamide], the IC50 amounted to 1260 nM.
Consider `C[C@@H](NC(=O)[C@H]1CC[C@H](NS(=O)(=O)c2ccc3[nH]cnc3c2)CC1)c1ccc(F)cc1` [Example 107, (1r,4R)-4-(1H-benzo[d]imidazole-5-sulfonamido)-N-((R)-1-(4-fluorophenyl)ethyl)cyclohexanecarboxamide], for which the IC50 is 205 nM.
Consider `COc1ccc(Nc2nc3cc(S(=O)(=O)Nc4ccc(C(=O)OC(C)C)cc4)ccc3[nH]2)cc1OC` [Example 531, isopropyl 4-(2-(3,4-dimethoxyphenylamino)-1H-benzo[d]imidazole-5-sulfonamido)benzoate], for which the IC50 was determined as 248 nM.
With `Cn1c(-c2ccccc2)cc2ccc(S(=O)(=O)N[C@H]3CC[C@H](C(=O)N4CCN[C@@H](C(F)(F)F)C4)CC3)cc21` [Example 332, 1-methyl-2-phenyl-N-((1R,4r)-4-((R)-3-(trifluoromethyl)piperazine-1-carbonyl)cyclohexyl)-1H-indole-6-sulfonamide], the IC50 amounted to 25 nM.
In the case of `Cn1c(-c2ccccc2)cc2ccc(S(=O)(=O)N[C@H]3CC[C@H](C(=O)N4CCCCC4)CC3)cc21` [Example 376, 1-methyl-2-phenyl-N-((1r,4r)-4-(piperidine-1-carbonyl)cyclohexyl)-1H-indole-6-sulfonamide], the IC50 was 95 nM.
`CC(NC(=O)C1CCC(NS(=O)(=O)c2cnc3c(c2)NC2CCCCC2N3)CC1)c1ccc(F)cc1` [Example 162, (1S,4R)-N-((R)-1-(4-fluorophenyl)ethyl)-4-((5aS,9aS)-5,5a,6,7,8,9,9a,10-octahydropyrido[3,2-b]quinoxaline-3-sulfonamido)cyclohexanecarboxamide]: the IC50 came out at 125 nM.
As to `C[C@@H](NC(=O)[C@H]1CC[C@H](NS(=O)(=O)c2ccc3c(c2)N(C)C(C(=O)O)CC3)CC1)c1ccc(F)cc1` (stereo partly drawn) [Example 225, 7-(N-((1R,4r)-4-((R)-1-(4-fluorophenyl)ethylcarbamoyl)cyclohexyl)sulfamoyl)-1-methyl-1,2,3,4-tetrahydroquinoline-2-carboxylic acid], the IC50 was 85 nM.
Regarding `C[C@@H](NC(=O)[C@H]1CC[C@H](NS(=O)(=O)c2ccc3cc(-c4c(Cl)cccc4Cl)[nH]c3c2)CC1)c1ccc(F)cc1` [Example 295, (1r,4R)-4-(2-(2,6-dichlorophenyl)-1H-indole-6-sulfonamido)-N-((R)-1-(4-fluorophenyl)ethyl)cyclohexanecarboxamide], the IC50 was found to be 475 nM.
As to `CCOc1ccc2cc(S(=O)(=O)N[C@H]3CC[C@H](C(=O)N4CCNC[C@@H]4C(=O)OC)CC3)ccc2n1` [Example 236, (R)-methyl 1-((1r,4R)-4-(2-ethoxyquinoline-6-sulfonamido)cyclohexanecarbonyl)piperazine-2-carboxylate], the IC50 stood at 385 nM.
Consider `CCN(C)C(=O)[C@H]1CC[C@H](NS(=O)(=O)c2ccc3[nH]c(Nc4ccccc4)nc3c2)CC1` [Example 568, (1r,4r)-N-ethyl-N-methyl-4-(2-(phenylamino)-1H-benzo[d]imidazole-5-sulfonamido)cyclohexanecarboxamide], for which the IC50 came out at 126 nM.
In the case of `COc1cc(Nc2nc3cc(S(=O)(=O)Nc4ccc(C(=O)OC(C)C)cc4)ccc3[nH]2)cc(OC)c1` [Example 530, isopropyl 4-(2-(3,5-dimethoxyphenylamino)-1H-benzo[d]imidazole-5-sulfonamido)benzoate], the IC50 amounted to 612 nM.
On to `O=C([C@H]1CC[C@H](NS(=O)(=O)c2ccc3[nH]c(-c4ccccc4)nc3c2)CC1)N1CCN(c2ccccc2)CC1` [Example 617, 2-phenyl-N-((1r,4r)-4-(4-phenylpiperazine-1-carbonyl)cyclohexyl)-1H-benzo[d]imidazole-5-sulfonamide], for which the IC50 turned out to be 996 nM.
As to `Cn1c(-c2ccc(CCC(=O)O)cc2)cc2ccc(S(=O)(=O)N[C@H]3CC[C@H](C(=O)N4CCOC[C@@H]4C4CC4)CC3)cc21` [Example 476, 3-(4-(6-(N-((1S,4r)-4-((S)-3-cyclopropylmorpholine-4-carbonyl)cyclohexyl)sulfamoyl)-1-methyl-1H-indol-2-yl)phenyl)propanoic acid], the IC50 was < 10 nM.
The figure for `CC(C)(C)OC(=O)N1CCN(C(=O)[C@H]2CC[C@H](NS(=O)(=O)c3cnc4ccccc4c3)CC2)C(c2ccccc2)C1` (stereo partly drawn) [Example 60, tert-butyl 3-phenyl-4-((1r,4r)-4-(quinoline-3-sulfonamido)cyclohexanecarbonyl)piperazine-1-carboxylate] is 131 nM; for `COC(=O)C(C)(C)[C@@H](NC(=O)[C@H]1CC[C@H](NS(=O)(=O)c2ccc3cc(C4CC4)n(C)c3c2)CC1)c1ccccc1` [Example 396, (S)-methyl 3-((1r,4S)-4-(2-cyclopropyl-1-methyl-1H-indole-6-sulfonamido)cyclohexanecarboxamido)-2,2-dimethyl-3-phenylpropanoate] it is 10 nM.
Take `C[C@H]1COCCN1C(=O)[C@H]1CC[C@H](NS(=O)(=O)c2ccc3cc(-c4ccccc4)n(C)c3c2)CC1` [Example 425, 1-methyl-N-((1S,4r)-4-((S)-3-methylmorpholine-4-carbonyl)cyclohexyl)-2-phenyl-1H-indole-6-sulfonamide]: the IC50 was 30 nM.
Consider `C[C@@H](NC(=O)[C@H]1CC[C@H](NS(=O)(=O)c2ccc3ccccc3c2)CC1)c1cccnc1` [Example 682, (1r,4R)-4-(naphthalene-2-sulfonamido)-N-((R)-1-(pyridin-3-yl)ethyl)cyclohexanecarboxamide], for which the IC50 came to 144 nM.
The figure for `Cn1c(-c2ccccc2)cc2ccc(S(=O)(=O)N[C@H]3CC[C@H](C(=O)N[C@@H](c4ccccc4)C(C)(C)CO)CC3)cc21` [Example 439, (1r,4S)-N-((S)-3-hydroxy-2,2-dimethyl-1-phenylpropyl)-4-(1-methyl-2-phenyl-1H-indole-6-sulfonamido)cyclohexanecarboxamide] is < 10 nM; for `C[C@@H](NC(=O)[C@H]1CC[C@H](NS(=O)(=O)c2ccc3nc(OC(C)(C)CO)ccc3c2)CC1)c1ccc(F)cc1` [Example 80, (1r,4R)-N-((R)-1-(4-fluorophenyl)ethyl)-4-(2-(1-hydroxy-2-methylpropan-2-yloxy)quinoline-6-sulfonamido)cyclohexanecarboxamide] it is 40 nM.
The value for `Cn1c(-c2ccccc2)cc2cc(S(=O)(=O)N[C@H]3CC[C@H](C(=O)N4CCN[C@H](C(F)(F)F)C4)CC3)ccc21` [Example 86, 1-methyl-2-phenyl-N-((1S,4r)-4-((S)-3-(trifluoromethyl)piperazine-1-carbonyl)cyclohexyl)-1H-indole-5-sulfonamide] was 75 nM.
